Measurements: patent US20020188132A1, “Heteroaryl acetylenic sulfonamide and phosphinic acid amide hydroxamic acid TACE inhibitors” (priority 1999, published 2002)

Key:
Type in all cases: biochemical
[1] = target: TACE (Homo sapiens, UniProt P78536); assay: TACE inhibition (fluorescent peptidyl substrate)
Method: Using 96-well black microtiter plates, each well receives a solution composed of 10 μL TACE (final concentration 1 μg/mL), 70 μL Tris buffer, pH 7.4 containing 10% glycerol (final concentration 10 mM), and 10 μL of test compound solution in DMSO (final concentration 1 μM, DMSO concentration <1%) and incubated for 10 minutes at room temperature. The reaction is initiated by addition of a fluorescent peptidyl substrate (final concentration 100 μM) to each well and then shaking on a shaker for 5 sec.
The reaction is read (excitation 340 nm, emission 420 nm) for 10 min. and the increase in fluorescence over time is plotted as a linear line. The slope of the line is calculated and represents the reaction rate.
The linearity of the reaction rate is confirmed (r^2>0.85). The mean (x±sem) of the control rate is calculated and compared for statistical significance (p<0.05) with drug-treated rates using Dunnett's multiple comparison test. Dose-response relationships can be generate using multiple doses of drug and IC50 values with 95% CI are estimated using linear regression.

[2] = target: T1, MMP-1 (Homo sapiens, UniProt P03956); assay: MMP-1 inhibition (thiopeptide or fluorescent peptide substrate)
T1 sequence (P03956 100-469): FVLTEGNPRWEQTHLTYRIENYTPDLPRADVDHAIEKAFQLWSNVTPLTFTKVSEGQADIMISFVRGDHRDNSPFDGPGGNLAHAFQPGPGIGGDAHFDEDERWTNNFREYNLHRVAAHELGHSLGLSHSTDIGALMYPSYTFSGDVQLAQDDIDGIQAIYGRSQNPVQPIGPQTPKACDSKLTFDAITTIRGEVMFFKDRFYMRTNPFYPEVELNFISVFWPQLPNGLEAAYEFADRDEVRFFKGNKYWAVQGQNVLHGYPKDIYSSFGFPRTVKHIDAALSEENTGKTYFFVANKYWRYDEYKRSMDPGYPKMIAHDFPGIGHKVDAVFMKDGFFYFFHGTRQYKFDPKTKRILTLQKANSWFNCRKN
Method: (§1) These standard pharmacological test procedures are based on the cleavage of a thiopeptide substrates such as Ac-Pro-Leu-Gly(2-mercapto-4-methyl-pentanoyl)-Leu-Gly-OEt by the matrix metalloproteinases MMP-1, MMP-13 (collagenases) or MMP-9 (gelatinase), which results in the release of a substrate product that reacts calorimetrically with DTNB (5,5′-dithiobis(2-nitro-benzoic acid)). The enzyme activity is measured by the rate of the color increase. The thiopeptide substrate is made up fresh as a 20 mM stock in 100% DMSO and the DTNB is dissolved in 100% DMSO as a 100 mM stock and stored in the dark at room temperature. […] The buffer, enzyme, vehicle or inhibitor, and DTNB/substrate are added in this order to a 96 well plate (total reaction volume of 200 μl) and the increase in color is monitored spectrophotometrically for 5 minutes at 405 nm on a plate reader and the increase in color over time is plotted as a linear line.
(§2) Alternatively, a fluorescent peptide substrate is used. […] Upon cleavage of the substrate by an MMP, the fluorescence that is generated is quantitated on the fluorescence plate reader. […] The reaction is read (excitation 340 nm, emission 444 nm) for 10 min. and the increase in fluorescence over time is plotted as a linear line.
(§3) For either the thiopeptide or fluorescent peptide test procedures, the slope of the line is calculated and represents the reaction rate. […]

[3] = target: MMP-9 (Homo sapiens, UniProt P14780); assay: MMP-9 inhibition (thiopeptide or fluorescent peptide substrate)
Method: as §1, §2, §3

[4] = target: MMP-13 (Homo sapiens, UniProt P45452); assay: MMP-13 inhibition (thiopeptide or fluorescent peptide substrate)
Method: as §1, §2, §3

Sequence of TACE (P78536 215-824): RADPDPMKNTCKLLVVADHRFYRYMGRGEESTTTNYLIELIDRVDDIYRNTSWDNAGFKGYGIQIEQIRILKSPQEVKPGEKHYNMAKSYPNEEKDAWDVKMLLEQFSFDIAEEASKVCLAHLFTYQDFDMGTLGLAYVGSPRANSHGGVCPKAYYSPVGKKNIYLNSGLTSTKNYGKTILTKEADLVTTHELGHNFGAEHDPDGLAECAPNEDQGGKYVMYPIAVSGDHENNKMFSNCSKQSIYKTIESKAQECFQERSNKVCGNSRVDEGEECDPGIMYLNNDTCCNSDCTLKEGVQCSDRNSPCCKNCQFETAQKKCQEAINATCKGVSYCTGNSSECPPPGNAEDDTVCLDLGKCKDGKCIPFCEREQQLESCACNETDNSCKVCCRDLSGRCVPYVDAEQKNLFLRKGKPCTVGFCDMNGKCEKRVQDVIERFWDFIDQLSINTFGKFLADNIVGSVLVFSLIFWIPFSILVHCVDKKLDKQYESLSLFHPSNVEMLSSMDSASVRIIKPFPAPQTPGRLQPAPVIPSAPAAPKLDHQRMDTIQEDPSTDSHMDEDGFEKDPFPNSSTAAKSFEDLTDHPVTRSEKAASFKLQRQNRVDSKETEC
Sequence of MMP-9 (P14780 94-707): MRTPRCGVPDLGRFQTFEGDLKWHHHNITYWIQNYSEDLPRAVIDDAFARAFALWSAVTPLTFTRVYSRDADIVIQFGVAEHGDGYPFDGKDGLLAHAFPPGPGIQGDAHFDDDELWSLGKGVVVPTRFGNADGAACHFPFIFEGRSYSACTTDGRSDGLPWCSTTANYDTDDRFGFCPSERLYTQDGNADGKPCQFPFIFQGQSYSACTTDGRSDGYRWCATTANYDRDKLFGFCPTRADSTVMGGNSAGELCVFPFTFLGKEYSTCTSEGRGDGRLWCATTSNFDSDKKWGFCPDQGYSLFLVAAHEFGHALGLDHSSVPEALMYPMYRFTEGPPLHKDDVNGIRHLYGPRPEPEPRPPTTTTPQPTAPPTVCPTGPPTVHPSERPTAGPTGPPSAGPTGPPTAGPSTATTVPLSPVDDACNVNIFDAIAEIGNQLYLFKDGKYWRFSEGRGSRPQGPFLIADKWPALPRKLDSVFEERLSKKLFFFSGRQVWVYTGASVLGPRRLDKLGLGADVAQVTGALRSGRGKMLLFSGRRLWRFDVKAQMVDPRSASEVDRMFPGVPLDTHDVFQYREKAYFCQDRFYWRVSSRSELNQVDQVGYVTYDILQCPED

IC50 [1] [nM]	IC50 [2] [nM]	IC50 [3] [nM]	IC50 [4] [nM]	SMILES
44				CC#CCOc1ccc(S(=O)(=O)Nc2c(C(=O)NO)cc(OC)nc2OC)cc1 [Example 35, 3-(4-But-2-ynyloxy-benzenesulfonylamino)-N-hydroxy-2,6-dimethoxy-isonicotinamide]
11	~10000	607	478	CC#CCOc1ccc(S(=O)(=O)N(C)c2c(C(=O)NO)cc(OC)nc2OC)cc1 [Example 33, 3-[Methyl-(4-but-2-ynyloxy-benzenesulfonyl)-animo]-N-hydroxy-2,6-dimethoxy-isonicotinamide]
